According to patent EP0183129A1, “Quinolonecarboxylic acid derivatives” (KYORIN PHARMACEUTICAL CO., LTD., priority 1984, dated 1986):
In brackets after ≈: the same amount, converted by molar mass. Like-named read-outs stand apart in the source and are kept apart here.

Assays:
[1] = system: Proteus vulgaris IFO 3167; test: In vitro antibacterial activity, MIC (standard strain); type: cell-based; details: Proteus vulgaris, IFO3167
[2] = system: Staphylococcus aureus 209 P; test: as above; type: cell-based; details: Staphylococcus aureus, 209P
[3] = system: Serratia marcescens IID 618; test: as above; type: cell-based; details: Serratia marcescens, IID618
[4] = system: Citrobacter freundii IID 976; test: as above; type: cell-based; details: Citrobacter freundii, IID976
Shigella sonnei IID 969 = test: as above; type: cell-based; details: IID969, 10^6 cells/ml
Protocol: Experiment-1 In vitro antibacterial activity
The in vitro antibacterial activity against gram-positive and gram-negative bacteria has been investivated.
The minimum inhibitory concentration (MIC) was determined in accordance with the method recommended by Japan Society of Chemotherapy.

[5] = system: Fusobacterium varium KYA 8501; test: as above; type: cell-based; details: Fusobacterium varium, KYA8501
S. epidermidis IID 866 = test: as above; type: cell-based; details: Staphylococcus epidermidis, IID866
S. pneumoniae S-4288 = test: In vivo antibacterial activity against systemic infection in mice; parameters: species or system mice (ICR-S); details: Streptococcus pneumoniae, S4288, po, read-out: ED50 S. pneumoniae S-4288
Protocol: (§1) Experiment-2 In vivo antibacterial activity against systemic infection in mice (ICR-S)
(§2) The infections were produced by intraperitoneal injection of a suspension of the bacterial culture corresponding to the germ studied. The products were administered orally at an hour after the infection.

E. coli ML4707 = test: as above; parameters: species or system mice (ICR-S); details: Escherichia coli, ML4707, po, read-out: ED50 E. coli ML4707
Protocol: as §1, §2

S. aureus Smith [6] = test: as above; parameters: species or system mice (ICR-S); details: Staphylococcus aureus, po
Protocol: as §1, §2

[7] = system: Bacillus subtilis PCI 219; test: In vitro antibacterial activity, MIC (standard strain); type: cell-based; details: Bacillus subtilis, PCI219
[8] = system: Escherichia coli NIHJ JC-2; test: as above; type: cell-based; details: Escherichia coli, NIHJJC2
[9] = system: Salmonella entritidis IID 604; test: as above; type: cell-based; details: Salmonella, IID604
E. coli ATCC 10536 = test: as above; type: cell-based; details: Escherichia coli, ATCC10536
K. pneumoniae 1-220S = test: as above; type: cell-based; details: Klebsiella pneumoniae, 1220S
[10] = system: Klebsiella pneumoniae KY(GN)6445; test: as above; type: cell-based; details: Klebsiella pneumoniae
[11] = system: S. aureus IID 670 (Terajima); test: as above; type: cell-based, Staphylococcus aureus; details: Staphylococcus aureus, IID670
P. mirabilis IID 994 = test: as above; type: cell-based; details: Proteus mirabilis, IID994
[12] = system: Morganella morganii IID 602; test: as above; type: cell-based; details: IID602; Morganella morganii IID 602; 10^6 cells/ml; standard strain; read-out: MIC
[13] = system: Yersinia enterocolitica IID 981; test: as above; type: cell-based; details: Yersinia enterocolitica, IID981
S. aureus Smith [14] = test: as above; type: cell-based, Staphylococcus aureus; details: Staphylococcus aureus, MIC column of Table 3-1, beside ED50 against S. aureus Smith
C. difficile I-E = test: as above; type: cell-based; details: Clostridioides difficile
E. coli ML 4707 = test: as above; type: cell-based; details: Escherichia coli, ML4707

O=C(O)c1cn(C2CC2)c2cc(N3CCNCC3)c(F)cc2c1=O [CFLX, Ciprofloxacin, reference compound]
MIC [1]: 0.0125 mg/L (≈ 0.0377 µM)
MIC [2]: 0.2 mg/L (≈ 0.604 µM)
MIC [3]: 0.05 mg/L (≈ 0.151 µM)
MIC [4]: 0.025 mg/L (≈ 0.0754 µM)
MIC (Shigella sonnei IID 969): 0.0125 mg/L (≈ 0.0377 µM)
MIC [5]: 12.5 mg/L (≈ 37.7 µM)
MIC (S. epidermidis IID 866): 0.2 mg/L (≈ 0.604 µM)
ED50 (S. pneumoniae S-4288): > 100 mg/kg
ED50 (E. coli ML4707): 1.8 mg/kg
ED50 (S. aureus Smith [6]; read-out: ED50 S. aureus Smith, mice (ICR-S), an hour after intraperitoneal infection, challenge dose 6.0 x 10^5 cfu/mouse): > 25 mg/kg
ED50 (S. aureus Smith [6]; read-out: ED50 against S. aureus Smith, mice (ICR-S), an hour after intraperitoneal infection, challenge dose 5.5 x 10^5 cfu/mouse, n=5): 25.5 mg/kg
ED50 (S. aureus Smith [6]; read-out: ED50 against S. aureus Smith, mice (ICR-S), an hour after intraperitoneal infection, challenge dose 7 x 10^5 cfu/mouse, n=5): 12.3 mg/kg
MIC [7]: 0.05 mg/L (≈ 0.151 µM)
MIC [8]: 0.0125 mg/L (≈ 0.0377 µM)
MIC [9]: 0.05 mg/L (≈ 0.151 µM)
MIC (E. coli ATCC 10536): 0.025 mg/L (≈ 0.0754 µM)
MIC (K. pneumoniae 1-220S): 0.05 mg/L (≈ 0.151 µM)
MIC [10]: 0.025 mg/L (≈ 0.0754 µM)
MIC [11]: 0.2 mg/L (≈ 0.604 µM)
MIC (P. mirabilis IID 994): 0.025 mg/L (≈ 0.0754 µM)
MIC [12]: 0.05 mg/L (≈ 0.151 µM)
MIC [13]: 0.05 mg/L (≈ 0.151 µM)
MIC (S. aureus Smith [14]): 0.2 mg/L (≈ 0.604 µM)
MIC (C. difficile I-E): 12.5 mg/L (≈ 37.7 µM)
MIC (E. coli ML 4707): 0.0125 mg/L (≈ 0.0377 µM)
